SMILES strings stand for the structures.

The test system of one series is rat ovarian aromatase. The experiment in a line: Aromatase inhibition in vivo in rats (ovarian aromatase activity). The following applies: for % Aromatase inhibition at 30 mg/kg p.o.: PMSG-treated adult female rats, ovaries taken 24 hours later; for In vivo effectiveness by oral route: 30 mg/kg. The text has this: The aromatase inhibitors for formula (I) can find also use in the control of reproduction: indeed a decrease in oestrogen levels in vivo results in gonad-inhibiting activity and in insufficient uterine development; aromatase inhibitors may be at the same time implantation inhibitors. Another application of the compounds of the invention is in the treatment of prostatic hypertrophy or hyperplasia, related to an excessive oestrogen production and the shifting of the oestrogen/androgen ratio to higher values. Furthermore, the compounds of the invention, producing decrease in estradiol formation, may be useful for the treatment of male fertility disturbances (Drugs 28: 263, 1984). […] Accordingly, decreased estradiol formation, as can be obtained through administration of the compounds of the invention, leads to an improvement of both sperm count and fertility, in patients with infertility due to oligozoospermia. Aromatase inhibition by the compounds of the present invention was determined, e.g., both in vitro (human placental aromatase) and in vivo (ovarian aromatase activity) in rats.
(§1) The enzyme system was isolated from the microsomal fraction of human placental tissue according to standard procedure. The assay of Thompson and Siiteri [E. A. Thompson and P. K. Siiteri, J. Biol. Chem. 249, 5364, (1974)] which determines the rate of aromatization as measured by the liberation of ^3 H2 O from 4-[1β,2β-^3 H] androsten-3,17-dione was used. All incubations were carried out in a shaking water bath at 37° C. in air in 10 mM potassium phosphate buffer, pH 7.5, which contained 100 mM KCl, 1 mM EDA and 1 mM dithiothreitol. The experiments were carried out in 1 ml incubation volume containing 50 nM 4-[…], various concentrations of the inhibitors, 100 μM NADPH and 0.05 mg of microsomal proteins. After 15 minutes of incubation the reaction was stopped by the addition of chloroform (5 ml). After centrifugation at 1500×g for 5 minutes, aliquots (0.5 ml) were removed from the water phase for determination of ^3 H2 O formed. The concentration of each compound required to reduce control aromatase by 50% (IC50) was determined by plotting % inhibition versus log of inhibitor concentration. The relative potency of each compound versus 4 OH-A was calculated according to the relation: [formula] (b) Aromatase inhibition in vivo in rats Adult female rats were twice treated subcutaneously with 100 I.U. pregnant mares' serum gonadotropin (PMSG) at 4 days' interval, in order to increase ovarian aromatase activity, according to Brodie's procedure [A. M. H. Brodie et al., Steroids 38, 693, (1981)]. Three days after the second PMSG treatment, groups of 6 animals each were given orally the vehicle (0.5% methocel) or the inhibitor at 30 mg/kg. Animals were killed 24 hours later, microsomes were isolated from ovaries and their aromatase activity determined using a method similar to that described in (a).

The conditions of series [1]: cited from earlier work.
Series [2] deals with T1, human placental aromatase (Homo sapiens, UniProt P11511).
T1 construct: The enzyme system was isolated from the microsomal fraction of human placental tissue; from tissue; host or cells: human placental tissue, microsomal fraction
T1 sequence (P11511 1-503): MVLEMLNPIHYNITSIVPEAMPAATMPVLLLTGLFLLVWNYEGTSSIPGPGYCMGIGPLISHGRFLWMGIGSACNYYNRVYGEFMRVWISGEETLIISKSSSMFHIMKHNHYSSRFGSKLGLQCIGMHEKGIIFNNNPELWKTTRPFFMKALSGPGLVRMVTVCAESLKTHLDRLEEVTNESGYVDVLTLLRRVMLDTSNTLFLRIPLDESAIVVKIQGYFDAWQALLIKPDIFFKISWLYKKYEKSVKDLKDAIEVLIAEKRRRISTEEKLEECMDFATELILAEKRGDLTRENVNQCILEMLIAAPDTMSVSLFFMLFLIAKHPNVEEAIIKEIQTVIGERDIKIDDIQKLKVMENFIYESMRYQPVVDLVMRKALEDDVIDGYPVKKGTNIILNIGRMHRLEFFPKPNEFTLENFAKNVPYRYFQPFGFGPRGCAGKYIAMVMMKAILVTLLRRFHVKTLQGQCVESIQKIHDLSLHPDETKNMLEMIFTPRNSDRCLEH
The experiment in a line: Aromatase inhibition in vitro (human placental aromatase, 3H2O release assay). Format: biochemical. As to the method:
Aromatase inhibition by the compounds of the present invention was determined, e.g., both in vitro (human placental aromatase) and in vivo (ovarian aromatase activity) in rats.
(a) Aromatase inhibition in vitro
as §1

Series [3] in a line: Resistance to hepatic metabolization. To be noted: oral route.

Turning to `C[C@]12CCC(=O)C(O)=C1CC[C@@H]1[C@@H]2CC[C@]2(C)C(=O)CC[C@@H]12` [Example 4-OH-A, 4-hydroxyandrost-4-en-3,17-dione, reference compound], in the series on rat ovarian aromatase, the “% Aromatase inhibition at 30 mg/kg p.o.” value is “inactive” and the “In vivo effectiveness by oral route” value is given as “ineffective”. The “Conjugation after oral administration” value in series [1] was “extensively conjugated after oral administration”. This molecule came in with an IC50 in series [2] of 44 nM.
Regarding `C[C@]12CCC(=O)C(N)=C1C=C[C@@H]1[C@@H]2CC[C@]2(C)C(=O)CC[C@@H]12` [FCE 24210, 4-aminoandrosta-4,6-dien-3,17-dione], in the series on rat ovarian aromatase, the “% Aromatase inhibition at 30 mg/kg p.o.” value was 70% and the “In vivo effectiveness by oral route” value is on record as “very effective when administered in vivo by oral route”. Also, in the series on rat ovarian aromatase (in vivo), the “Aromatase inhibition in vivo” value was “very potent aromatase inhibitors both in vitro and in vivo”; the “In vivo activity compared to androsta-1,4-dien-3,17-dione” value is reported as “very superior to that of androsta-1,4-dien-3,17-dione”. Moreover, in the series with rat ovarian aromatase (stated as in vivo), the “Potency relative to androsta-1,4-dien-3,17-dione” value is recorded as “about equipotent as androsta-1,4-dien-3,17-dione” and the “Potency relative to Δ^1-testololactone (times more potent)” value is “about 55 times”. In series [2], half-maximal inhibition (IC50) was put at 148 nM and the “Relative potency (versus 4-OH-A)” value turned out to be 0.30. Also, in series [2] (in vitro), the “Aromatase inhibition in vitro” value was “very potent aromatase inhibitors both in vitro and in vivo”; the “In vitro potency relative to 4-OH-A” value is “about three times lower than that of 4-OH-A”. Also, the “Resistance to hepatic metabolization” value in series [3] is recorded as “unusual resistance to hepatic metabolization”.
In the case of `C[C@]12C=CC(=O)C=C1CC[C@@H]1[C@@H]2CC[C@]2(C)C(=O)CC[C@@H]12` [androsta-1,4-dien-3,17-dione, reference compound], the “% Aromatase inhibition at 30 mg/kg p.o.” value with rat ovarian aromatase worked out at 37%.
Take `C[C@]12C=CC(=O)C=C1CC[C@@H]1[C@@H]2CC[C@]2(C)OC(=O)CC[C@@H]12` [Δ^1 -testololactone, reference compound]: the “% Aromatase inhibition at 30 mg/kg p.o.” value in the series with rat ovarian aromatase is “inactive”. Moreover, in series [2], half-maximal inhibition (IC50) was put at 8240 nM and the “Relative potency (versus 4-OH-A)” value stood at 0.005.

Source of the values: patent publication US4757061A, “4-amino androstendione derivatives and process for their preparation” (Farmitalia Carlo Erba, S.p.A., priority 1985, dated 1988).
